Experimental data from patent US5770573A, “CS-1 peptidomimetics, compositions and methods of using the same” (Cytel Corporation, priority 1995, dated 1998).
Like-named read-outs stand apart in the source and are kept apart here. Numbered stars: 1 amine (or outer) side, 2 acyl side, 3 side chain; on linkers, the order of the positions; unused ones are H or OH. Square brackets hold non-standard residues; d marks the D form. Peptide text beside a SMILES is read from it. * marks the point of attachment. Cha = N[C@@H](CC1CCCCC1)C(=O)O; Tle = CC(C)(C)[C@H](N)C(=O)O; Nicotinoyl = O=C(c1cccnc1)*; PhAc = O=C(Cc1ccccc1)*; CO = O=C([*:1])[*:2]; Bz = O=C(c1ccccc1)*; NHPh = c1ccc(N*)cc1

Molecular target: VLA-4 (Homo sapiens, UniProt P05556+P13612)
Sequence (P13612 34-1032): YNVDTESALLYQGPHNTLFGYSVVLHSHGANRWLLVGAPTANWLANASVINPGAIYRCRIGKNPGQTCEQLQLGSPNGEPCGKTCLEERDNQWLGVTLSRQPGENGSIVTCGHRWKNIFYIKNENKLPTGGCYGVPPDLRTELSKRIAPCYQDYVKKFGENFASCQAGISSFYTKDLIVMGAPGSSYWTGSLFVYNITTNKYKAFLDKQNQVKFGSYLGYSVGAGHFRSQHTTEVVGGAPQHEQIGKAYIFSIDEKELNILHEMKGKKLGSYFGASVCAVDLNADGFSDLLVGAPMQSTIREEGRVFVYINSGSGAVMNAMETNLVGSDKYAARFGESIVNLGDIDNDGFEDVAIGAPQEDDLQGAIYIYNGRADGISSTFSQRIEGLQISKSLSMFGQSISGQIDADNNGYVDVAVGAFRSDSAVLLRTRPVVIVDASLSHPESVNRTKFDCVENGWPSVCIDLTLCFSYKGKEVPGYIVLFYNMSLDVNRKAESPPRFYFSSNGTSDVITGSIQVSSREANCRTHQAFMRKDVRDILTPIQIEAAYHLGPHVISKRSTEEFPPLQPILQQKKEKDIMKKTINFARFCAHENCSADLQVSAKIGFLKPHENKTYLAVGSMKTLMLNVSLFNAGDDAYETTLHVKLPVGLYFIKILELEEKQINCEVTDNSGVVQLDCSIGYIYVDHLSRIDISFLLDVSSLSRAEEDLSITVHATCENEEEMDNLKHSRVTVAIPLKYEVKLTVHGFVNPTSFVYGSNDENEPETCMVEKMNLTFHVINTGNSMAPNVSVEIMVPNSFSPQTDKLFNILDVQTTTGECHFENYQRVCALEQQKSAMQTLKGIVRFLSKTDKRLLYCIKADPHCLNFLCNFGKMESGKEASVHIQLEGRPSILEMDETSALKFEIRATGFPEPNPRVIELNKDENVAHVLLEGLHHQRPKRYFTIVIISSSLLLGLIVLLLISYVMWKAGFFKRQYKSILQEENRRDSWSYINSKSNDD
Sequence (P05556 21-798): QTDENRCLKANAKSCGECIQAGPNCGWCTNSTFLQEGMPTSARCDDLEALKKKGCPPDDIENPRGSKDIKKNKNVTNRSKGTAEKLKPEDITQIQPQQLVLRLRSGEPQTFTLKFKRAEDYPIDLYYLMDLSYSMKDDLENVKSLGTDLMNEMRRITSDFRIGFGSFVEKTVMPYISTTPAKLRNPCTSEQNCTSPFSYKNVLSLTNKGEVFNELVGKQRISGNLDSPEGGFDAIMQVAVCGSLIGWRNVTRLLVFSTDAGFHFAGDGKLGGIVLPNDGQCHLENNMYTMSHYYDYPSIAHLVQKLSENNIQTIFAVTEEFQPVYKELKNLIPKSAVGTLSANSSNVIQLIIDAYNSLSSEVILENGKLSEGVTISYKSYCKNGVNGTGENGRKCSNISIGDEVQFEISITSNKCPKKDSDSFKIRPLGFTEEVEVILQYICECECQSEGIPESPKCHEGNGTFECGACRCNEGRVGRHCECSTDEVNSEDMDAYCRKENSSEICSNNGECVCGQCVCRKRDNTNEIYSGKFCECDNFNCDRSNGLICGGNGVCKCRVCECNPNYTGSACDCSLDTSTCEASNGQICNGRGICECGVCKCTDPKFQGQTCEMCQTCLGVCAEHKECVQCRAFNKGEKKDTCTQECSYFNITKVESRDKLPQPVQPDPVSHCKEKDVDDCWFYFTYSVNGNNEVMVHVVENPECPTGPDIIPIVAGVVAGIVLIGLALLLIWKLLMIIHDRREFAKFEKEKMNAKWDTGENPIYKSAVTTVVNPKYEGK
Assay: In vitro binding inhibition of 51Cr-labeled Jurkat cells to solid phase-bound CS-1 compound (SEQ ID NO:1)
Assay type: cell-based
Set-up: inflammatory cells that contain the VLA-4 receptor [Jurkat cells; host or cells: Jurkat (human T lymphoblastic line)
Description: Binding inhibition is measured here as a concentration of compound that inhibits one-half the binding between a standard number of Jurkat cells and a standard amount of CS-1 compound bound to the surface of a microtiter plate well. Those concentrations are conveniently expressed as IC50 values, smaller numbers indicating a lower concentration required to inhibit 50 percent binding and therefore greater potency. Further specifics of this assay are provided hereinafter.
Jurkat cells (ATCC TIB 152), a human T lymphoblastic line, labeled with ^51 chromium were used to assay in vitro binding inhibition provided by various compounds discussed herein.
The plates were prepared as follows: The 25-mer CS-1 compound (SEQ ID NO:1) dissolved at 0.5-1 μg/ml in a buffer of 0.1M NaHCO3 at pH 9.5 that also contained 10 μg/ml of bovine serum albumin (BSA) or a conjugate of the CS-1 compound linked to […] (CS-1-OVA) dissolved at 1-2.5 μg/ml in the same buffer was used as the substrate. Each well of the microtiter plates was coated with 50 μl of substrate or buffer alone for controls. The wells were permitted to dry out completely and were then rinsed twice with PBS at pH 7.4. Non-specific binding sites of each well were then blocked using 200 μl per well of RPMI/1 percent BSA for two hours at room temperature.
Jurkat cells (3-5×10^6 cells) were placed into a 15 ml Falcon™ round-bottom tube with a cap. The tube was centrifuged, and the extra medium was then removed.
Two hundred microliters of a ^51 Cr labeling solution were added to the centrifuged cells and maintained in contact with the cells for 90-120 minutes in a warm room. […] Longer contact times provide a greater amount of labeling but lower cell viability.
The labeled cells are washed with (i) complete medium, (ii) 1 mM EDTA/PBS and then (iii) RPM1/1 percent BSA free of serum components. The cells are centrifuged after each washing. The cells are finally resuspended in serum-free RPMI/1 percent BSA at a concentration of 1×10^6 viable cells/ml, which provides a concentration that is diluted by one-half in the assay.
Inhibitor compounds are prepared as stock solutions at 20 mg/ml in DMSO in 1.5 ml cryogenic screwcap vials, and were stored at -70° C. Using Flow™ round-bottom or V-bottom microtiter plates, the inhibitor compounds were prepared at twice the assay concentration in RPMI/1 percent BSA at 60 μl/well.
Four initial dilutions were typically used.
The ^51 Cr-labeled cells ([…] at 60 μl/well) were then admixed with the diluted compound solutions. The admixtures were maintained at room temperature (about 22° C.) for 30 minutes.
One hundred microliters of each inhibitor compound/cell admixture were transferred to the substrate-coated wells. This was done in triplicate for each dilution. The resulting plates were incubated for 30 minutes at 37° C. and then washed gently three times with RPMI/1 percent BSA at 200 μl/well. Binding was observed microscopically, particularly after the second wash.
The bound cells were then lysed by the addition of a 0.5 percent solution of sodium dodecylsulfate in water at 100 μl/well. The resulting solutions were then processed for counting and calculation of IC50 values following usual procedures.
The data of Table 1 are normalized to the binding of SEQ ID NO: 3. […] Multiple assays for the same compound were averaged.

[1] = binding inhibition potency relative to standard compound of SEQ ID NO:3 = 1 (normalized IC50), about one-tenth or less assigned zero

Relative Potency | SMILES | Relative Potency [1]
1.55 | CC[C@H](C)[C@H](N)C(=O)N[C@@H](CC(C)C)C(=O)N[C@@H](CC(=O)O)C(=O)N[C@H](C(=O)N1CCC[C@H]1C(N)=O)C(C)C [886.03] | 
2 | CC[C@H](C)[C@H](N)C(=O)N[C@@H](CC(C)C)C(=O)N[C@@H](CC(=O)O)C(=O)N[C@H](C(=O)N1CCC[C@H]1C(=O)O)C(C)C [886.05] (H-ILDVP-OH) | 
5.38 | CC[C@H](C)[C@H](N)C(=O)N[C@@H](CC(C)C)C(=O)N[C@@H](CC(=O)O)C(=O)N[C@H](C(=O)N1CCC[C@@H]1C(N)=O)C(C)C [886.10] | 
5.63 | CC[C@H](C)[C@H](N)C(=O)N[C@@H](CC(C)C)C(=O)N[C@@H](CC(=O)O)C(=O)N[C@@H](Cc1ccccc1)C(=O)N1CCC[C@@H]1C(N)=O [896.26] (H-ILDF[dP]-NH2) | 
16.9 | CC(C)C[C@H](NC(=O)[C@@H](N)Cc1ccccc1)C(=O)N[C@@H](CC(=O)O)C(=O)N[C@@H](Cc1ccccc1)C(=O)N1CCC[C@@H]1C(N)=O [896.27] (H-FLDF[dP]-NH2) | 
 | CC(C)C[C@H](NC(=O)c1ccccc1)C(=O)N[C@@H](CC(=O)O)C(=O)N[C@@H](Cc1ccccc1)C(=O)N1CCC[C@@H]1C(N)=O [896.28] (Bz-LDF[dP]-NH2) | 44.6
2.27 | CC[C@H](C)[C@H](N)C(=O)N[C@@H](CC1CCCCC1)C(=O)N[C@@H](CC(=O)O)C(=O)N[C@@H](Cc1ccccc1)C(=O)N1CCC[C@@H]1C(N)=O [896.29] (H-I[Cha]DF[dP]-NH2) | 
2.69 | NC(=O)[C@H]1CCCN1C(=O)[C@H](Cc1ccccc1)NC(=O)[C@H](CC(=O)O)NC(=O)[C@H](CC1CCCCC1)NC(=O)[C@@H](N)Cc1ccccc1 [896.30] (H-F[Cha]DF[dP]-NH2) | 
 | NC(=O)[C@H]1CCCN1C(=O)[C@H](Cc1ccccc1)NC(=O)[C@H](CC(=O)O)NC(=O)[C@H](CC1CCCCC1)NC(=O)c1ccccc1 [896.31] (Bz-[Cha]DF[dP]-NH2) | 11
1.41 | CC[C@H](C)[C@H](N)C(=O)N[C@@H](CC1CCCCC1)C(=O)N[C@@H](CC(=O)O)C(=O)N[C@H](C(=O)N1CCC[C@@H]1C(N)=O)C(C)C [896.32] (H-I[Cha]DV[dP]-NH2) | 
2.61 | CC(C)[C@H](NC(=O)[C@H](CC(=O)O)NC(=O)[C@H](CC1CCCCC1)NC(=O)[C@@H](N)Cc1ccccc1)C(=O)N1CCC[C@@H]1C(N)=O [896.33] (H-F[Cha]DV[dP]-NH2) | 
 | CC(C)[C@H](NC(=O)[C@H](CC(=O)O)NC(=O)[C@H](CC1CCCCC1)NC(=O)c1ccccc1)C(=O)N1CCC[C@@H]1C(N)=O [896.34] (Bz-[Cha]DV[dP]-NH2) | 6.73
 | CC(C)C[C@H](NC(=O)c1ccccc1)C(=O)N[C@@H](CC(=O)O)C(=O)N[C@H](C(=O)N1CCC[C@H]1C(N)=O)C(C)C [896.35] | 16
3.13 | Cc1cccc(C)c1C(=O)N[C@@H](CC(C)C)C(=O)N[C@@H](CC(=O)O)C(=O)N[C@H](C(=O)N1CCC[C@@H]1C(N)=O)C(C)C [896.36] | 
5.01 | Cc1ccc(C(=O)N[C@@H](CC(C)C)C(=O)N[C@@H](CC(=O)O)C(=O)N[C@H](C(=O)N2CCC[C@@H]2C(N)=O)C(C)C)cc1C [896.37] | 
6.57 | Cc1cccc(C(=O)N[C@@H](CC(C)C)C(=O)N[C@@H](CC(=O)O)C(=O)N[C@H](C(=O)N2CCC[C@@H]2C(N)=O)C(C)C)c1C [896.38] | 
 | CC(C)C[C@H](NC(=O)Cc1ccccc1)C(=O)N[C@@H](CC(=O)O)C(=O)N[C@H](C(=O)N1CCC[C@@H]1C(N)=O)C(C)C [896.39] | 47.5
5.32 | CC(C)C[C@H](NC(=O)CCc1ccccc1)C(=O)N[C@@H](CC(=O)O)C(=O)N[C@H](C(=O)N1CCC[C@@H]1C(N)=O)C(C)C [896.40] | 

Relative Potency | SMILES | Relative Potency [1]
 | CC(C)C[C@H](NC(=O)/C=C/c1ccccc1)C(=O)N[C@@H](CC(=O)O)C(=O)N[C@H](C(=O)N1CCC[C@@H]1C(N)=O)C(C)C [896.41] | 1.97
38.1 | CC(C)C[C@H](NC(=O)c1cccnc1)C(=O)N[C@@H](CC(=O)O)C(=O)N[C@H](C(=O)N1CCC[C@@H]1C(N)=O)C(C)C [896.42] | 
 | CC(C)C[C@H](NC(=O)c1cccc2ccccc12)C(=O)N[C@@H](CC(=O)O)C(=O)N[C@H](C(=O)N1CCC[C@@H]1C(N)=O)C(C)C [896.43] | 4.38
2.5 | CC(C)C[C@H](NC(=O)c1ccc2ccccc2c1)C(=O)N[C@@H](CC(=O)O)C(=O)N[C@H](C(=O)N1CCC[C@@H]1C(N)=O)C(C)C [896.44] | 
1.75 | CC(C)C[C@H](NC(=O)CCC1CCCCC1)C(=O)N[C@@H](CC(=O)O)C(=O)N[C@H](C(=O)N1CCC[C@@H]1C(N)=O)C(C)C [896.45] | 
6.57 | CCC(C)CC(=O)N[C@@H](CC(C)C)C(=O)N[C@@H](CC(=O)O)C(=O)N[C@H](C(=O)N1CCC[C@@H]1C(N)=O)C(C)C (stereo partly drawn) [896.46] | 
5.01 | CC(C)CCC(=O)N[C@@H](CC(C)C)C(=O)N[C@@H](CC(=O)O)C(=O)N[C@H](C(=O)N1CCC[C@@H]1C(N)=O)C(C)C [896.47] | 
3.76 | CC(C)C[C@H](NC(=O)CC1CCCCC1)C(=O)N[C@@H](CC(=O)O)C(=O)N[C@H](C(=O)N1CCC[C@@H]1C(N)=O)C(C)C [896.48] | 
9.08 | CC(C)C[C@H](NC(=O)C1CCCCC1)C(=O)N[C@@H](CC(=O)O)C(=O)N[C@H](C(=O)N1CCC[C@@H]1C(N)=O)C(C)C [896.49] | 
1.38 | CC(C)C[C@H](NC(=O)C12CC3CC(CC(C3)C1)C2)C(=O)N[C@@H](CC(=O)O)C(=O)N[C@H](C(=O)N1CCC[C@@H]1C(N)=O)C(C)C [896.50] | 
110 | CC(C)C[C@@H](C(=O)N[C@@H](CC(=O)O)C(=O)N[C@H](C(=O)N1CCC[C@@H]1C(N)=O)C(C)C)N1C(=O)c2ccccc2C1=O [896.51] | 
13 | CC(C)C[C@H](NC(=O)c1ccccn1)C(=O)N[C@@H](CC(=O)O)C(=O)N[C@H](C(=O)N1CCC[C@@H]1C(N)=O)C(C)C [896.54] | 
105 | CC(C)C[C@H](NC(=O)c1cccnc1)C(=O)N[C@@H](CC(=O)O)C(=O)N[C@@H](Cc1ccccc1)C(=O)N1CCC[C@@H]1C(N)=O [896.55] (Nicotinoyl-LDF[dP]-NH2) | 
 | CC(C)C[C@H](NC(=O)Cc1ccccc1)C(=O)N[C@@H](CC(=O)O)C(=O)N[C@H](C(=O)N1CCC[C@@H]1C(N)=O)C(C)(C)C [896.56] (PhAc-LD[Tle][dP]-NH2) | 1.72
 | CC(C)C[C@H](NC(=O)Cc1ccccc1)C(=O)N[C@@H](CS)C(=O)N[C@@H](Cc1ccccc1)C(=O)N1CCC[C@@H]1C(N)=O [896.59] (PhAc-LCF[dP]-NH2) | 0
 | CC(C)C[C@H](NC(=O)Cc1ccccc1)C(=O)N[C@@H](CC(=O)O)C(=O)N[C@@H](Cc1c[nH]c2ccccc12)C(=O)N1CCC[C@@H]1C(N)=O [896.60] (PhAc-LDW[dP]-NH2) | 131
 | CC(C)C[C@H](NC(=O)Cc1ccccc1)C(=O)N[C@@H](CC(=O)O)C(=O)N[C@@H](Cc1ccc(O)cc1)C(=O)N1CCC[C@@H]1C(N)=O [896.61] (PhAc-LDY[dP]-NH2) | 612

SMILES | Relative Potency | Relative Potency [1]
CC(C)C[C@H](NC(=O)Nc1ccccc1)C(=O)N[C@@H](CC(=O)O)C(=O)N[C@@H](Cc1ccccc1)C(=O)N1CCC[C@@H]1C(N)=O [896.62] ({NHPh-CO}-LDF[dP]-NH2) | 257 | 
